Here are results for 22 molecules from paper PMC9292294 (Chemmedchem, 2021).

Test [1] deals with FXIIa (Homo sapiens, UniProt P00748). As to the kind of experiment: Medium‐throughput screening. The settings on record: read-out: Inhibition @100 nM [in MTS] FXIIa. Format: biochemical.
The target of test [2] is human Factor Xa (Homo sapiens, UniProt P00742). The test can be described thus: FXa inhibition assay, fluorogenic substrate Boc‐Ile‐Glu‐Gly‐Arg‐AMC. Format: biochemical.
Test [3] deals with thrombin (FIIa) (Homo sapiens, UniProt P00734). As to the kind of experiment: Medium‐throughput screening. Format: biochemical. The following applies: read-out: Inhibition @100 nM [in MTS] FIIa.
Test [4] concerns the target porcine trypsin (Sus scrofa, UniProt P00761). As to the kind of experiment: Trypsin inhibition assay, fluorogenic substrate Z‐Gly‐Gly‐Arg‐AMC. The following applies: for inhibition at 5 µM: read-out: Trypsin inhibition % at 5 μM. Format: biochemical.
Test [5] deals with human β‐FXIIa (Homo sapiens, UniProt P00748). Type of test: biochemical.
human β‐FXIIa, sequence (P00748 373-615 limits assumed, other chains not shown): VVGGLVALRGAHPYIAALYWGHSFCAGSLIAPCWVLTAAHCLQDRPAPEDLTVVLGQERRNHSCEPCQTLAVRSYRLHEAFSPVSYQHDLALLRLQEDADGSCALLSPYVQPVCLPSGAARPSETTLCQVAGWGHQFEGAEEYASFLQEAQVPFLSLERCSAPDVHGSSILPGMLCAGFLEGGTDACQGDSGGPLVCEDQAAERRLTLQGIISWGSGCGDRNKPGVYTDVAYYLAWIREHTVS
Test [6] addresses human α‐thrombin (factor IIa) (Homo sapiens, UniProt P00734). Format: biochemical.
The subject of test [7] is human pooled plasma. As to the kind of experiment: In vitro plasma coagulation assay, activated partial thromboplastin time. The following applies: 200 μM, fold increase compared to DMSO.

porcine trypsin, sequence (P00761 9-231): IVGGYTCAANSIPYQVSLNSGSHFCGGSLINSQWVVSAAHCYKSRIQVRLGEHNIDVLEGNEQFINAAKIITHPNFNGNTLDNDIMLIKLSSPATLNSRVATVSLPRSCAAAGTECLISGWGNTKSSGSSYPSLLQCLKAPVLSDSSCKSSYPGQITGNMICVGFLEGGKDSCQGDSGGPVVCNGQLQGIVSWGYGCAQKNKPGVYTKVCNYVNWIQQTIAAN
human Factor Xa, sequence (P00742 235-488 limits assumed): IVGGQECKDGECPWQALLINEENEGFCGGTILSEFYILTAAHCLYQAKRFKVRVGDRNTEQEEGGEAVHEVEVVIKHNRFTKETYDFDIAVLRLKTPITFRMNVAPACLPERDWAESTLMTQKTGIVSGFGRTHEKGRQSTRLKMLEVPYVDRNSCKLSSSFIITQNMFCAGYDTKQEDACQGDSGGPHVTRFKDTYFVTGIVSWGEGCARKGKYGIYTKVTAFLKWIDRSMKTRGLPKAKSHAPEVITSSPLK
human Factor Xa, sequence (P00742 41-179 limits assumed): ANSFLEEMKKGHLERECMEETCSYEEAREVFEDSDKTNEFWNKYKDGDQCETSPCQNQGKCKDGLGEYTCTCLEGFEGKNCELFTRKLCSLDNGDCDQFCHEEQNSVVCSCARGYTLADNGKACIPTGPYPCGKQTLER
FXIIa, sequence (P00748 373-615 limits assumed, other chains not shown): as the sequence (P00748 373-615 limits assumed, other chains not shown) above

What is called inhibition is the change of the read-out against control, counted positive when it falls. A word on the IC50: it is the concentration that gives 50% inhibition. Read a high IC50 as a need for much substance. For `Nc1nc(-c2cnccn2)nn1C(=O)Cc1ccccc1I` [32 c, 1‐(5‐Amino‐3‐(pyrazin‐2‐yl)‐1H‐1,2,4‐triazol‐1‐yl)‐2‐(2‐iodophenyl)ethan‐1‐one], the values for the inhibition at 0.1 µM in test [1] and in test [3] were 75% and 15%, respectively. In addition, the IC50 in test [2] was greater than 5 µM; in test [4] it was greater than 5 µM; in test [5] it was 0.065 ± 0.009 µM; in test [6], 1.69 ± 0.167 µM.

For `Nc1nc(-c2nccc3ccccc23)nn1C(=O)[C@H]1CCCc2ccccc21` [33 i, (S)‐(5‐Amino‐3‐(isoquinolin‐1‐yl)‐1H‐1,2,4‐triazol‐1‐yl)(1,2,3,4‐tetrahydronaphthalen‐1‐yl)‐methanone], the inhibition at 0.1 µM in test [1] was found to be 14%; in test [3], 62%. Further, the half-maximal inhibitory concentration (IC50) in test [2] was greater than 5 µM; in test [4], greater than 5 µM; in test [5] it was 0.547 ± 0.058 µM; in test [6] it was 0.038 ± 0.009 µM.

`Nc1nc(-c2ccccn2)nn1C(=O)Cc1ccccc1I` [32 a, 1‐(5‐Amino‐3‐(pyridin‐2‐yl)‐1H‐1,2,4‐triazol‐1‐yl)‐2‐(2‐iodophenyl)ethan‐1‐one]: the inhibition at 0.1 µM in test [1] came out at 54%; in test [3], 2%. This molecule also yielded a 50% inhibitory concentration (IC50) in test [4] greater than 5 µM.

Turning to `Nc1nc(-c2cnccn2)nn1C(=O)[C@H]1CCCc2ccccc21` [33 c, (S)‐(5‐Amino‐3‐(pyrazin‐2‐yl)‐1H‐1,2,4‐triazol‐1‐yl)(1,2,3,4‐tetrahydronaphthalen‐1‐yl)methanone], in test [7], the “aPTT, fold” value was determined as 2.7 fold. Moreover, the results for the inhibition at 0.1 µM in test [1] and in test [3] were 80% and 36%, respectively. For the same molecule, the half-maximal inhibitory concentration (IC50) in test [2] is greater than 5 µM; in test [4], greater than 5 µM; in test [5], 0.106 ± 0.013 µM; in test [6], 0.143 ± 0.005 µM.

Turning to `Cc1nc(-c2cccs2)ccc1-c1nc(N)n(C(=O)[C@H]2CCCc3ccccc32)n1` [33 d, (S)‐(5‐Amino‐3‐(2‐methyl‐6‐(thiophen‐2‐yl)pyridin‐3‐yl)‐1H‐1,2,4‐triazol‐1‐yl)(1,2,3,4‐tetrahydro‐naphthalen‐1‐yl)methanone], the values for the inhibition at 0.1 µM in test [1] and in test [3] were 26% and 0%, respectively. Besides, the IC50 in test [2] is greater than 5 µM; in test [4], greater than 5 µM; in test [5], 1.14 ± 0.334 µM; in test [6] it was greater than 5 µM.

As to `Nc1nc(-c2ccc(F)cc2)nn1C(=O)[C@H]1CCCc2ccccc21` [33 f, (S)‐(5‐Amino‐3‐(4‐fluorophenyl)‐1H‐1,2,4‐triazol‐1‐yl)(1,2,3,4‐tetrahydronaphthalen‐1‐yl)‐methanone], the results for the inhibition at 0.1 µM in test [1] and in test [3] were 29% and 0%, respectively. Further, the concentration for half-maximal inhibition (IC50) in test [2] was greater than 5 µM; in test [4], greater than 5 µM; in test [5], roughly 2 µM; in test [6], greater than 5 µM.

With `Cc1cccc(-c2nc(N)n(C(=O)[C@H]3CCCc4ccccc43)n2)n1` [33 b, (S)‐(5‐Amino‐3‐(6‐methylpyridin‐2‐yl)‐1H‐1,2,4‐triazol‐1‐yl)(1,2,3,4‐tetrahydronaphthalen‐1‐yl)‐methanone], the inhibition at 0.1 µM was determined as 36% in test [1] and 5% in test [3]. In addition, the IC50 in test [2] was greater than 5 µM; in test [4], greater than 5 µM; in test [5] it was 0.214 ± 0.035 µM; in test [6] it was 0.819 ± 0.015 µM.

Regarding `Nc1nc(-c2cnc3ccccc3n2)nn1C(=O)[C@H]1CCCc2ccccc21` [39 a, (S)‐(5‐Amino‐3‐(quinoxalin‐2‐yl)‐1H‐1,2,4‐triazol‐1‐yl)(1,2,3,4‐tetrahydronaphthalen‐1‐yl)‐methanone], the values for the IC50 in test [2], in test [5] and in test [6] were greater than 5 µM, 0.033 ± 0.007 µM and greater than 5 µM, respectively. Besides, the inhibition at 5 µM in test [4] was found to be 32%. The “fold improved FXIIa inhibitory activity” value in test [5] (versus parent 33 h (122 nM vs. 33 nM)) was determined as 3.7 fold.

In the case of `Nc1nc(-c2nccc3ccccc23)nn1C(=O)c1ccc2ccccc2c1` [41 c, (5‐Amino‐3‐(isoquinolin‐1‐yl)‐1H‐1,2,4‐triazol‐1‐yl)(naphthalen‐2‐yl)methanone], the IC50 in test [2], in test [4] and in test [5] was greater than 5 µM each time.

In the case of `O=C(NC[C@H]1CN(c2ccc(N3CCOCC3=O)cc2)C(=O)O1)c1ccc(Cl)s1` [Rivaroxaban, reference compound], the inhibition at 0.1 µM was -1% in test [1] and 1% in test [3]. Besides, the half-inhibitory concentration (IC50) in test [4] and in test [5] was greater than 5 µM each time.

As to `[H]/N=C(/N)c1ccc(NCc2nc3cc(C(=O)N(CCC(=O)O)c4ccccn4)ccc3n2C)cc1` [Dabigatran, reference compound], the values for the inhibition at 0.1 µM in test [1] and in test [3] were -1% and 91%, respectively. The inhibition at 1 µM in test [2] (read-out: FXa inhibition % at 1 μM) turned out to be 34%. The inhibition at 5 µM in test [4] came to 59%. This molecule registered a half-inhibitory concentration (IC50) in test [5] greater than 5 µM.

Take `Cc1nc(-c2cccs2)ccc1-c1nc(N)n(C(=O)Cc2ccccc2I)n1` [32 d, 1‐(5‐Amino‐3‐(2‐methyl‐6‐(thiophen‐2‐yl)pyridin‐3‐yl)‐1H‐1,2,4‐triazol‐1‐yl)‐2‐(2‐iodophenyl)‐ethan‐1‐one]: the inhibition at 0.1 µM in test [1] turned out to be 8%; in test [3], 0%. Besides, the 50% inhibitory concentration (IC50) in test [2] is greater than 5 µM; in test [4], greater than 5 µM; in test [5] it was 0.716 ± 0.082 µM; in test [6], greater than 5 µM.

Consider `CC(C)(C)c1nc(N)n(C(=O)[C@H]2CCCc3ccccc32)n1` [33 e, (S)‐(5‐Amino‐3‐(tert‐butyl)‐1H‐1,2,4‐triazol‐1‐yl)(1,2,3,4‐tetrahydronaphthalen‐1‐yl)methanone], for which the figures for the inhibition at 0.1 µM in test [1] and in test [3] were 0% and 1%, respectively. For the same molecule, the concentration for half-maximal inhibition (IC50) in test [2], in test [4], in test [5] and in test [6] was greater than 5 µM each time.

With `Nc1nc(-c2ccc3ccccc3n2)nn1C(=O)c1ccccc1` [40 a, (5‐Amino‐3‐(quinoline‐2‐yl)‐1H‐1,2,4‐triazol‐1‐yl)(phenyl)methanone], the IC50 was greater than 5 µM in test [2], greater than 5 µM in test [4], 0.013 ± 0.002 µM in test [5] and 0.124 ± 0.01 µM in test [6].

For `Cc1nc2ccccc2nc1-c1nc(N)n(C(=O)[C@H]2CCCc3ccccc32)n1` [33 h, (S)‐(5‐Amino‐3‐(3‐methylquinoxalin‐2‐yl)‐1H‐1,2,4‐triazol‐1‐yl)(1,2,3,4‐tetrahydronaphthalen‐1‐yl)methanone], the inhibition at 0.1 µM in test [1] is 81%; in test [3], 0%. The IC50 in test [2] was greater than 5 µM; in test [4], greater than 5 µM; in test [5], 0.122 ± 0.035 µM; in test [6], greater than 5 µM.

On to `Nc1nc(-c2nccc3ccccc23)nn1C(=O)c1ccccc1` [41 a, (5‐Amino‐3‐(isoquinolin‐1‐yl)‐1H‐1,2,4‐triazol‐1‐yl)(phenyl)methanone], for which the IC50 in test [2] is greater than 5 µM; in test [4], greater than 5 µM; in test [5], 0.236 ± 0.005 µM; in test [6], 0.063 ± 0.001 µM.

Turning to `Cc1cccc(-c2nc(N)n(C(=O)Cc3ccccc3I)n2)n1` [32 b, 1‐(5‐Amino‐3‐(6‐methylpyridin‐2‐yl)‐1H‐1,2,4‐triazol‐1‐yl)‐2‐(2‐iodophenyl)ethan‐1‐one], the inhibition at 0.1 µM in test [1] was 54%; in test [3] it was 0%. In addition, the IC50 in test [2] was greater than 5 µM; in test [4], greater than 5 µM; in test [5], 0.073 ± 0.022 µM; in test [6], greater than 5 µM.

`Nc1nc(-c2ccccc2C(=O)N2CCCCC2)nn1C(=O)[C@H]1CCCc2ccccc21` [33 j, (S)‐(2‐(5‐Amino‐1‐(1,2,3,4‐tetrahydronaphthalene‐1‐carbonyl)‐1H‐1,2,4‐triazol‐3‐yl)phenyl)‐(piperidin‐1‐yl)methanone]: the inhibition at 0.1 µM in test [1] is 8%; in test [3], 1%. Moreover, the concentration for half-maximal inhibition (IC50) in test [2] was greater than 5 µM; in test [4], greater than 5 µM; in test [5] it was 1.52 ± 0.182 µM; in test [6], 5.7 ± 0.33 µM.

As to `CC(C)(C)c1nc(N)n(C(=O)Cc2ccccc2I)n1` [32 e, 1‐(5‐Amino‐3‐(tert‐butyl)‐1H‐1,2,4‐triazol‐1‐yl)‐2‐(2‐iodophenyl)ethan‐1‐one], the inhibition at 0.1 µM in test [1] was 3%; in test [3] it was 1%. Also, the IC50 in test [2], in test [4], in test [5] and in test [6] was greater than 5 µM throughout.

For the molecule `Nc1nc(-c2cnc3ccccc3n2)nn1C(=O)c1cccc2ccccc12` [39 b, (5‐Amino‐3‐(quinoxalin‐2‐yl)‐1H‐1,2,4‐triazol‐1‐yl)(naphthalen‐1‐yl)methanone], the IC50 in test [2], in test [4] and in test [6] was greater than 5 µM in each case.

`Nc1nc(-c2ccc3ccccc3n2)nn1C(=O)c1cccc2ccccc12` [40 b, (5‐Amino‐3‐(quinolin‐2‐yl)‐1H‐1,2,4‐triazol‐1‐yl)(naphthalen‐1‐yl)methanone]: the half-maximal inhibitory concentration (IC50) in test [4] was greater than 5 µM; in test [5], 0.008 ± 0.002 µM; in test [6], 0.348 ± 0.015 µM.

For `Nc1nc(-c2ccccn2)nn1C(=O)[C@H]1CCCc2ccccc21` [33 a, (S)‐(5‐Amino‐3‐(pyridin‐2‐yl)‐1H‐1,2,4‐triazol‐1‐yl)(1,2,3,4‐tetrahydro‐naphthalen‐1‐yl)‐methanone], the values for the inhibition at 0.1 µM in test [1] and in test [3] were 73% and 10%, respectively. The IC50 in test [4] was greater than 5 µM.
